Measurements reported in ChEMBL document CHEMBL1201862, “PubChem BioAssay data set” (2004).
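48-hour exposure; five concentrations; linearly interpolated endpoints. Abbreviation: GI50, concentration required for 50% inhibition of growth.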 Activity calls are given as the source filed them. Cut-off read from the data, not from the text of the source: active = GI50 up to about 1.1 µM and inactive = higher.

How the values were obtained:
Assay in all cases: growth of human tumour cells (NCI), 48 h
786-0 = system: 786-0
A549 = system: A549
ACHN = system: ACHN
CAKI-1 = system: CAKI-1
COLO 205 = system: COLO 205
DLD-1 = system: DLD-1
DMS-114 = system: DMS-114
DMS-273 = system: DMS-273
EKVX = system: EKVX
HCC 2998 = system: HCC 2998
HCT-116 = system: HCT-116
HL-60 = system: HL-60
HOP-18 = system: HOP-18
HOP-62 = system: HOP-62
HOP-92 = system: HOP-92
HT-29 = system: HT-29
KM-20L2 = system: KM-20L2
KM12 = system: KM12
LOX IMVI = system: LOX IMVI
LXFL 529 = system: LXFL 529
M14 = system: M14
Malme-3M = system: Malme-3M
NCI-H226 = system: NCI-H226
NCI-H23 = system: NCI-H23
NCI-H460 = system: NCI-H460
NCI-H522 = system: NCI-H522
OVCAR-3 = system: OVCAR-3
OVCAR-4 = system: OVCAR-4
OVCAR-5 = system: OVCAR-5
OVCAR-8 = system: OVCAR-8
RXF 393 = system: RXF 393
SF-268 = system: SF-268
SF-295 = system: SF-295
SF-539 = system: SF-539
SK-MEL-28 = system: SK-MEL-28
SK-MEL-2 = system: SK-MEL-2
SNB-19 = system: SNB-19
SNB-75 = system: SNB-75
SNB-78 = system: SNB-78
SW-620 = system: SW-620
TK-10 = system: TK-10
U-251 = system: U-251
UACC-257 = system: UACC-257
UO-31 = system: UO-31
A498 = system: A498
CCRF-CEM = system: CCRF-CEM
HCT-15 = system: HCT-15
IGROV-1 = system: IGROV-1
K562 = system: K562
M19-MEL = system: M19-MEL
MOLT-4 = system: MOLT-4
RPMI-8226 = system: RPMI-8226
SK-MEL-5 = system: SK-MEL-5
SK-OV-3 = system: SK-OV-3
SN12C = system: SN12C
UACC-62 = system: UACC-62
SR = system: SR

Compound: N#CC(C#N)=c1c2nsnc2c(=C(C#N)C#N)c2nsnc12
- GI50 (786-0): 5.16 µM (inactive)
- GI50 (A549): 3.6 µM (inactive)
- GI50 (ACHN): 1.81 µM (inactive)
- GI50 (CAKI-1): 1.86 µM (inactive)
- GI50 (COLO 205): 2.52 µM (inactive)
- GI50 (DLD-1): 2.03 µM (inactive)
- GI50 (DMS-114): 1.91 µM (inactive)
- GI50 (DMS-273): 1.57 µM (inactive)
- GI50 (EKVX): 4.2 µM (inactive)
- GI50 (HCC 2998): 1.77 µM (inactive)
- GI50 (HCT-116): 1.98 µM (inactive)
- GI50 (HL-60): 2.27 µM (inactive)
- GI50 (HOP-18): 2.66 µM (inactive)
- GI50 (HOP-62): 2.04 µM (inactive)
- GI50 (HOP-92): 1.45 µM (inactive)
- GI50 (HT-29): 1.59 µM (inactive)
- GI50 (KM-20L2): 1.8 µM (inactive)
- GI50 (KM12): 1.85 µM (inactive)
- GI50 (LOX IMVI): 1.58 µM (inactive)
- GI50 (LXFL 529): 1.63 µM (inactive)
- GI50 (M14): 2.07 µM (inactive)
- GI50 (Malme-3M): 1.65 µM (inactive)
- GI50 (NCI-H226): 16.7 µM (inactive)
- GI50 (NCI-H23): 2.01 µM (inactive)
- GI50 (NCI-H460): 2.08 µM (inactive)
- GI50 (NCI-H522): 1.96 µM (inactive)
- GI50 (OVCAR-3): 3.66 µM (inactive)
- GI50 (OVCAR-4): 1.96 µM (inactive)
- GI50 (OVCAR-5): 1.89 µM (inactive)
- GI50 (OVCAR-8): 1.69 µM (inactive)
- GI50 (RXF 393): 1.28 µM (inactive)
- GI50 (SF-268): 2.3 µM (inactive)
- GI50 (SF-295): 1.89 µM (inactive)
- GI50 (SF-539): 1.93 µM (inactive)
- GI50 (SK-MEL-28): 1.87 µM (inactive)
- GI50 (SK-MEL-2): 2.02 µM (inactive)
- GI50 (SNB-19): 2.16 µM (inactive)
- GI50 (SNB-75): 1.51 µM (inactive)
- GI50 (SNB-78): 1.74 µM (inactive)
- GI50 (SW-620): 1.47 µM (inactive)
- GI50 (TK-10): 16 µM (inactive)
- GI50 (U-251): 1.79 µM (inactive)
- GI50 (UACC-257): 1.94 µM (inactive)
- GI50 (UO-31): 1.84 µM (inactive)

Compound: CCc1cc2c(c3[nH]ccc13)[C@@H](C)C[C@H]2C
- GI50 (786-0): 15 µM (inactive)
- GI50 (A498): 15.6 µM (inactive)
- GI50 (A549): 19.6 µM (inactive)
- GI50 (ACHN): 16.7 µM (inactive)
- GI50 (CAKI-1): 15.8 µM (inactive)
- GI50 (CCRF-CEM): 20.4 µM (inactive)
- GI50 (COLO 205): 19.9 µM (inactive)
- GI50 (DLD-1): 16.4 µM (inactive)
- GI50 (DMS-114): 19.9 µM (inactive)
- GI50 (DMS-273): 18 µM (inactive)
- GI50 (EKVX): 20.7 µM (inactive)
- GI50 (HCC 2998): 21.2 µM (inactive)
- GI50 (HCT-116): 16 µM (inactive)
- GI50 (HCT-15): 14.4 µM
- GI50 (HL-60): 21.8 µM (inactive)
- GI50 (HOP-18): 18.4 µM (inactive)
- GI50 (HOP-92): 16.2 µM (inactive)
- GI50 (HT-29): 19.7 µM (inactive)
- GI50 (IGROV-1): 19.4 µM (inactive)
- GI50 (K562): 21.6 µM (inactive)
- GI50 (KM12): 19.1 µM (inactive)
- GI50 (LOX IMVI): 12.7 µM (inactive)
- GI50 (LXFL 529): 18 µM (inactive)
- GI50 (M14): 17.2 µM (inactive)
- GI50 (M19-MEL): 17.2 µM (inactive)
- GI50 (MOLT-4): 14.3 µM (inactive)
- GI50 (Malme-3M): 18.6 µM (inactive)
- GI50 (NCI-H226): 16.4 µM (inactive)
- GI50 (NCI-H23): 17.8 µM (inactive)
- GI50 (NCI-H460): 14.9 µM (inactive)
- GI50 (NCI-H522): 16.2 µM (inactive)
- GI50 (OVCAR-3): 20 µM (inactive)
- GI50 (OVCAR-8): 19.7 µM (inactive)
- GI50 (RPMI-8226): 20.1 µM (inactive)
- GI50 (RXF 393): 13.8 µM (inactive)
- GI50 (SF-295): 18.8 µM (inactive)
- GI50 (SF-539): > 10 µM (inactive)
- GI50 (SK-MEL-28): 16.1 µM (inactive)
- GI50 (SK-MEL-5): 16.9 µM (inactive)
- GI50 (SK-OV-3): 30.5 µM (inactive)
- GI50 (SN12C): 15.6 µM (inactive)
- GI50 (SNB-75): 17.5 µM (inactive)
- GI50 (SNB-78): 16.4 µM (inactive)
- GI50 (SW-620): 19.8 µM (inactive)
- GI50 (TK-10): 19.5 µM (inactive)
- GI50 (U-251): 16.4 µM (inactive)
- GI50 (UACC-257): 19.9 µM (inactive)
- GI50 (UACC-62): 16.9 µM (inactive)
- GI50 (UO-31): 18.3 µM (inactive)

Compound: C=Cc1ccc(C)[n+](C[Si](C)(C)O[Si](C)(C)C[n+]2cc(C=C)ccc2C)c1
- GI50 (786-0): > 100 µM (inactive)
- GI50 (A549): 71.8 µM (inactive)
- GI50 (ACHN): > 100 µM (inactive)
- GI50 (CAKI-1): > 100 µM (inactive)
- GI50 (CCRF-CEM): > 100 µM (inactive)
- GI50 (COLO 205): > 100 µM (inactive)
- GI50 (DLD-1): > 100 µM (inactive)
- GI50 (DMS-114): > 100 µM (inactive)
- GI50 (DMS-273): > 100 µM (inactive)
- GI50 (EKVX): 54.2 µM (inactive)
- GI50 (HCC 2998): > 100 µM (inactive)
- GI50 (HCT-116): > 100 µM (inactive)
- GI50 (HL-60): > 100 µM (inactive)
- GI50 (HOP-18): > 100 µM (inactive)
- GI50 (HOP-62): > 100 µM (inactive)
- GI50 (HOP-92): > 100 µM (inactive)
- GI50 (HT-29): > 100 µM (inactive)
- GI50 (IGROV-1): > 100 µM (inactive)
- GI50 (K562): > 100 µM (inactive)
- GI50 (KM-20L2): > 100 µM (inactive)
- GI50 (KM12): > 100 µM (inactive)
- GI50 (LOX IMVI): > 100 µM (inactive)
- GI50 (LXFL 529): > 100 µM (inactive)
- GI50 (M14): > 100 µM (inactive)
- GI50 (M19-MEL): > 100 µM (inactive)
- GI50 (MOLT-4): > 100 µM (inactive)
- GI50 (Malme-3M): > 100 µM (inactive)
- GI50 (NCI-H226): > 100 µM (inactive)
- GI50 (NCI-H23): > 100 µM (inactive)
- GI50 (NCI-H460): > 100 µM (inactive)
- GI50 (NCI-H522): > 100 µM (inactive)
- GI50 (OVCAR-3): > 100 µM (inactive)
- GI50 (OVCAR-4): > 100 µM (inactive)
- GI50 (OVCAR-5): > 100 µM (inactive)
- GI50 (OVCAR-8): > 100 µM (inactive)
- GI50 (RPMI-8226): > 100 µM (inactive)
- GI50 (RXF 393): > 100 µM (inactive)
- GI50 (SF-268): > 100 µM (inactive)
- GI50 (SF-295): > 100 µM (inactive)
- GI50 (SF-539): > 100 µM (inactive)
- GI50 (SK-MEL-28): > 100 µM (inactive)
- GI50 (SK-MEL-2): > 100 µM (inactive)
- GI50 (SK-MEL-5): > 100 µM (inactive)
- GI50 (SK-OV-3): > 100 µM (inactive)
- GI50 (SN12C): > 100 µM (inactive)
- GI50 (SNB-19): > 100 µM (inactive)
- GI50 (SNB-75): > 100 µM (inactive)
- GI50 (SNB-78): > 100 µM (inactive)
- GI50 (SR): > 100 µM (inactive)
- GI50 (SW-620): > 100 µM (inactive)
- GI50 (TK-10): > 100 µM (inactive)
- GI50 (U-251): > 100 µM (inactive)
- GI50 (UACC-257): > 100 µM (inactive)
- GI50 (UACC-62): > 100 µM (inactive)
- GI50 (UO-31): > 100 µM (inactive)
